Measured values: patent publication US12343397B2, “Drug-resistant immune cells and methods of use thereof” (Regents of the University of Minnesota, priority 2018, dated 2025)

What was measured:
exon 2 of NR3C1 = assay: Surveyor nuclease assay of NR3C1 gRNA candidates in human primary T-cells; format: cell-based; conditions: Cas9 with gRNA
Procedure: FIGS. 3A-3D depicts the process of gene editing of NR3C1 glucocorticoid receptor by CRISPR guide RNA and Cas9. FIG. 3A depicts a schematic illustrating the process of gene transfer. T cells or Tregs were harvested and activated with CD3/CD28 beads for 48 h (fresh) or 72 h (frozen). The Neon electroporation device was used to deliver Cas9 mRNA or protein with a gene specific guide RNA. FIG. 3B depicts a schematic illustrating NR3C1 gene targeting. Four sites in exon 2 were identified and tested. Four candidates were identified. The candidates were tested using the Surveyor method. FIG. 3C depicts a schematic illustrating the Surveyor assay. Gene modified (“mutant amplicon”) and unmodified (“wild type amplicon”) are hybridized resulting in homo- or heteroduplexes. Heteroduplexes caused by pairing of gene edited and wild type sequences are cleaved by the Surveyor enzyme resulting in predictable DNA fragments.
Using these parameters the use of CRISPR/Cas9 engineering of T-cells was pursued using the experimental schema as shown in FIG. 3A. Human primary T-cells were grown in the presence of IL-2 and activated with CD3/CD28 beads for 48-72 hours. The CRISPR/Cas9 reagents used a guide RNA transcript (Synthego) and recombinant Cas9 peptide (Aldevron) that were delivered using the Neon electroporation device (ThermoFisher). […]

Tregs = assay: Survival of CRISPR/Cas9 NR3C1 knockout Tregs ± Dexamethasone; format: cell-based, human; conditions: Tregs electroporated with CRISPR/Cas9 RNP; Dexamethasone 30 μg/ml, 48 hours
Procedure: FIGS. 4A-4D depicts CRISPR/Cas9-mediated NR3C1 knockout in Tregs. Guide RNA candidates GR1 and GR2 were electroporated into activated Tregs as a ribonucleoprotein particle (RNP) with the Cas9 peptide. FIG. 4A depicts a schematic illustrating the culture process. FIG. 4B depicts a plot assessing the survival of Tregs after 72 h 30 μg/mL of Dexamethasone was added in the conditions as indicated. […] The NR3C1 locus was amplified from the pool of cells and indel analysis was performed by TIDE. The total gene modification rates were 35% and 44% for the pre- and post-Dexamethasone cells, respectively. The graph corresponds to the indel pattern observed in each population. […]
To determine whether the GR1 and GR2 guides were also capable of knocking out the NR3C1 locus in cultures of clinically-relevant Tregs, banked Tregs were thawed and re-stimulated with anti-CD3/28 beads in high dose IL-2 (300 U/ml). […] After 2 days, Treg cultures were harvested and were re-cultured±Dexamethasone (30 μg/ml) for an additional 48 hours (7 days total), at which time cultures were harvested, and relative survival was assessed by flow cytometry using a viability dye and counting beads. […] As such, the indel pattern using a sequence trace decomposition algorithm called TIDE (tracking of indels by decomposition) was assessed. Pre- and post-Dexamethasone exposure samples were analyzed (FIGS. 4C and 4D, respectively). […]

NR3C1 locus = assay: Indel analysis of the NR3C1 locus by TIDE; format: cell-based, human
Procedure: FIGS. 4A-4D depicts CRISPR/Cas9-mediated NR3C1 knockout in Tregs. Guide RNA candidates GR1 and GR2 were electroporated into activated Tregs as a ribonucleoprotein particle (RNP) with the Cas9 peptide. FIG. 4A depicts a schematic illustrating the culture process. FIG. 4B depicts a plot assessing the survival of Tregs after 72 h 30 μg/mL of Dexamethasone was added in the conditions as indicated. […] The NR3C1 locus was amplified from the pool of cells and indel analysis was performed by TIDE. The total gene modification rates were 35% and 44% for the pre- and post-Dexamethasone cells, respectively. The graph corresponds to the indel pattern observed in each population. Without being bound by any theory, it is predicted that out of frame indels (e.g., those non-divisible by three) will result in gene inactivation. Y-axis indicates the number of indels as a total percentage. X-axis indicates indels relative to unmodified (shown as bar in position 0). Deletions are shown to the left of the 0 position and each bar is between 1-10 bp away from the target site. Insertions of +1 bp are shown to the right of the 0 position. Asterisks show +1, −1, and −7 bp insertions/deletions and the frequency of these events increased with Dexamethasone exposure (comparing FIG. 4C with FIG. 4D), Dark black bars in FIGS. 4C-4D indicate editing events <0.5%.
To determine whether the GR1 and GR2 guides were also capable of knocking out the NR3C1 locus in cultures of clinically-relevant Tregs, banked Tregs were thawed and re-stimulated with anti-CD3/28 beads in high dose IL-2 (300 U/ml). On day 3, the Tregs were electroporated as above in the absence or presence of GR1 or GR2 GRISPR/Cas9 RNP and returned to culture in optimal expansion conditions. After 2 days, Treg cultures were harvested and were re-cultured±Dexamethasone (30 μg/ml) for an additional 48 hours (7 days total), at which time cultures were harvested, and relative survival was assessed by flow cytometry using a viability dye and counting beads. The dose of 30 μg/mL was identified by performing beta testing in Jurkat and primary T-cells that had undergone CRISPR/Cas9 gene modification and Dexamethasone dosing from 0-100 μg/mL. […] CRISPR/Cas9 gene repair by non-homologous endjoining results in insertions and deletions (indel) proximal to the gRNA binding site. As such, the indel pattern using a sequence trace decomposition algorithm called TIDE (tracking of indels by decomposition) was assessed. Pre- and post-Dexamethasone exposure samples were analyzed (FIGS. 4C and 4D, respectively). The frequency of out of frame indels that are predicted to result in gene inactivation in Tregs prior to Dexamethasone addition was ˜35%, which is similar to what was experimentally observed for peripheral blood T cells treated with GR2 GRISPR/Cas9 reagents (˜40%). Following culture in Dexamethasone, the frequency of indels increased to 44%. Without being bound by any theory, this indicates preferential survival of gene modified Tregs.

exon 2 of the NR3C1 gene = assay: HDR in Tregs, inside-out PCR and Sanger sequencing; format: cell-based, human; conditions: AAV-6 donor at various MOI
Procedure: FIGS. 5A-5C depicts homology directed repair (HDR) in Tregs. FIG. 5A depicts the gene targeting strategy. A calcineurin resistant gene co-expressed with GFP was designed such that it could be targeted to exon 2 of the NR3C1 gene resulting in a loss of 21 amino acids. The donor was encapsulated in AAV-6 particles and screening was performed using an inside/out PCR with primers (indicated by horizontal arrows) within the donor and outside of the donor at the target locus. FIG. 5B depicts gene targeting optimization. Activated Tregs were electroporated with NR3C1 Cas9 RNPs and the different indicated amounts of AAV-6 donor were added. Inside/out PCR results are shown with Sanger sequencing confirmation of the junction between the donor and the adjacent locus sequence shown in FIG. 5C.
To achieve dual drug (steroid and calcineurin inhibitor) resistance, Jurkat and primary T-cells were used to define the conditions for optimal homology directed repair (HDR). Cas9 mRNA and Cas9 RNP approaches were compared and assessed for their ability to facilitate HDR using a reporter HDR construct at the human AAVS1 locus. […] Flanking the calcineurin resistance gene were donor targeting arms homologous to the NR3C1 gene such that insertion disrupted exon 2 with concomitant deletion of 21 amino acids (FIG. 5A). […]

NR3C1 = assay: Base editing of NR3C1 in Tregs (Sanger sequencing, EditR); format: cell-based, human; conditions: Tregs electroporated with base editor mRNA and guide RNA
From the text: Treg cells were base edited by electroporation of the base editor as protein or mRNA encoding said base editor, along with a guide RNA to target bases for editing with said base editor. The genomic DNA of the edited cells was then isolated and the target locus was PCR amplified. The PCR amplified locus was then sequenced by Sanger sequencing. Base conversion was observed by identifying multiple peaks at the target site. The PCR amplicon sequence data then underwent decomposition using the EDITR method to quantify base editing frequency (see, Kluesner et al. “EditR: A novel base editing quantification software using Sanger sequencing”.DOI: 10.1101/213496.2017). For FIGS. 19-22, and 24-27, the base edited sequences are marked by red open boxes.
FIG. 16 depicts a schematic showing base editing wherein the CRISPR deactivated or nicking DNA binding domain is a dCas9, and the base-editing domain is a cytidine deaminase. Base editors can be delivered as RNP complexes whereby the guide RNA may or may not be modified with phosphorothioate bonds to prevent intracellular degradation by endogenous RNAses. […] Further, the sequences at exon:intron boundaries defined as splice donors and acceptors that are required for intron excision and proper open reading frame orientation and expression were also targeted for conversion in order to disrupt splicing. […]

[1] = test system: lethally irradiated BALB/c recipients of C57BL/6 (B6) donor bone marrow + T cells; assay: Steroid GVHD prophylaxis and therapy in allogeneic BMT recipients; format: in vivo, mouse; conditions: for GVHD therapy outcome / survival vs vehicle: 10 mg/kg/day day 3-28, 1.5×10^6 T cells
Procedure: FIG. 8 depicts steroid dose responses for GVHD prophylaxis in allogeneic BMT recipients. n=8 per group. BALB/c mice were lethally irradiated, given B6 BM+2 M T cells and steroids at the indicated doses from day 1-28. A low rapamycin dose (day 0-14, 3 times a week through day 27) was used as a comparator.
FIG. 9 depicts steroid based GVHD therapy in allogeneic BMT recipients. n=8 per group. BALB/c mice were lethally irradiated, given B6 BM+1.5 M T cells and steroids at 10 mg/kg/day day 3-28 or 4-28 as indicated.
FIG. 10 depicts steroid based GVHD therapy in allogeneic BMT recipients. n=15 (BM-Circles), 16 (Vehicle-Squares) and 25 (Prednisolone-Triangles). BALB/c mice were lethally irradiated, given B6 BM+1.5 M T cells and steroids at 10 mg/kg/day day 3-28.
To test whether gene modified (GR2-CRISPR/Cas9) or gene edited (GR2-CRISPR/Cas9/AAV-CaN mut.) Tregs have increased efficacy in vivo in the presence of glucocorticoid, how glucocorticoid (methyl-prednisolone) effects GVHD in preclinical mouse models was first determined. […] For these reasons, as well as the more logistically feasible and cost effective benefits of an allogeneic GVHD model, optimized steroid use in allogeneic recipients for GVHD prevention and therapy were first tested, and then applied to a xenogeneic model to enable testing of the human Treg product. Using lethally irradiated BALB/c recipients of C57BL/6 (B6) donor bone marrow+2×10^6 T cells, methyl-prednisolone at doses of 1, 3, and 6 mg/kg/dose were tested days 1-28 vs. rapamycin at 0.5 mg/kg/day, days 0-14 then 3×/week through day 27. The T cell dose was reduced to 1.5×10^6 and moved to GVHD therapy beginning on day 3 or day 4 (rather than day 1 prophylaxis) and compared no treatment to vehicle to prednisolone (n=8/group).
Delaying prednisolone treatment until day 4 was ineffective. Next, an experiment was performed to determine whether prednisolone at 10 mg/kg d3-28 was reproducible, and it was observed that this was the case (FIG. 10).

xeno-GVHD model = assay: Xenogeneic GVHD model (NSG mice given human PBMC); format: in vivo; conditions: 30 mg/kg, day 0-28
Procedure: FIGS. 11A-11D depicts the monitoring of GVHD in mice. Human PBMC (15×10^6) were injected into irradiated (50 rad) NSG mice±methylprednisolone (15 mg/kg), and signs of GVHD were monitored. FIG. 11A depicts a schematic illustration of the experiments indicating cohorts (n=7 mice each), dosing schedule, and analysis points. FIG. 11B depicts Kaplan-Meier survival curves for mice receiving PBMC only, or PBMC+prednisolone (p=0.104). FIG. 11C depicts disease progression monitored by weight loss (p=not significant). FIG. 11D depicts disease progression monitored by quantitating the number of PBMC-derived CD45+, CD4+, CD8+, and CD4+Foxp3+ T cells (p<0.03, <0.05, <0.03, and not significant, respectively). Animals were bled on day 19 for assessment.
FIGS. 12A-12D depicts the monitoring of GVHD in mice. […] FIG. 12B depicts Kaplan-Meier survival curves for mice receiving PBMC only, or PBMC+CNI (PBMC only vs. FK506 (36 mg/kg), p≤0.04). FIG. 12C depicts disease progression monitored by weight loss (p=not significant). FIG. 12D depicts disease progression monitored by quantitating the number of PBMC-derived CD45+, CD4+, CD8+, and CD4+Foxp3+ T cells (p<0.03, <0.05, <0.02, and not significant, respectively). Animals were bled on day 18 for assessment.
A follow up study has shown that xeno-GVHD pathology induced with 200 rad+1×10^7 human PBMC is more reproducible, and median survival is reduced from ˜25 days to ˜20 days.

Compound	nuclease activity (Surveyor DNA fragmentation products) (exon 2 of NR3C1)	survival in the presence of Dexamethasone (Tregs)	frequency of indels (NR3C1 locus; Tregs following culture in Dexamethasone)	frequency of out of frame indels (NR3C1 locus; Tregs prior to Dexamethasone addition)	frequency of out of frame indels (NR3C1 locus; peripheral blood T cells)	total gene modification rate (NR3C1 locus; post-Dexamethasone cells, FIG. 4D)	total gene modification rate (NR3C1 locus; pre-Dexamethasone cells, FIG. 4C)	HDR by inside-out PCR (exon 2 of the NR3C1 gene)	base editing outcome at the genetic locus (NR3C1)	GVHD therapy outcome / survival vs vehicle [1]	GVHD therapy outcome / survival vs vehicle ([1]; listed as Prednisolone)	GVHD therapy outcome ([1]; treatment delayed until day 4)	average weight (xeno-GVHD model)	survival advantage (xeno-GVHD model)	median survival (xeno-GVHD model; controls 29 days)	human CD4+ and CD8+ T cells in the blood (xeno-GVHD model; day 19)
GR2: gRNA TTGAGAAGCGACAGCCAGTG (anti-sense), exon 2 of NR3C1 (guide UUGAGAAGCGACAGCCAGUG; RNA, backbone not given here; 5' and 3' phosphorothioate bonds)	exhibited the highest activity levels	significantly increased survival	44%	~35%	~40%	44%	35%	HDR was observed in Tregs at each MOI	premature TAG stop codon	–	–	–	–	–	–	–
C[C@]12C=CC(=O)C=C1CC[C@@H]1[C@@H]2[C@@H](O)C[C@@]2(C)[C@H]1CC[C@]2(O)C(=O)CO [prednisolone]	–	–	–	–	–	–	–	–	–	improved outcome	significantly better than vehicle control	ineffective	not significantly different than controls	did not offer a survival advantage	25 days	significantly more human CD4+ and CD8+ T cells
GR1: gRNA AACCAAAAGTCTTCGCTGCT (anti-sense), exon 2 of NR3C1 (guide AACCAAAAGUCUUCGCUGCU; RNA, backbone not given here; 5' and 3' phosphorothioate bonds)	exhibited the highest activity levels	–	–	–	–	–	–	–	premature TAA stop codon	–	–	–	–	–	–	–
